Data taken from patent US6673798B2, “PDGF receptor kinase inhibitory compounds, their preparation, purification and pharmaceutical compositions including same” (Yissum Research Development Company of the Hebrew …, priority 1999, dated 2004).
Like-named read-outs stand apart in the source and are kept apart here.

What was measured:
KDR = biological target: T1, KDR (Homo sapiens, UniProt P35968); assay: KDR receptor phosphorylation in intact PAEC cells; type: cell-based; conditions: intact PAEC cells expressing KDR, VEGF stimulated; read-out: IC50 (50% inhibition of phosphorylation) KDR
T1 construct: expressed in transfected cells; host or cells: porcine aortic endothelial cells (PAEC), stably transfected
Description: (§1) Effect of tyrphostins on PDGF-induced PDGFR autophosphorylation in intact PAEC cells: PAEC cells, transfected with either PDGFR or KDR, cultivated in Ham's F-12 medium supplemented with 10% fetal calf serum (FCS), were synchronized for 20 hours in a medium containing 0.01% BSA. […] After stimulation, the cells were solubilized in Nonidet P-40 (1%) containing lysis buffer.
The analysis of KDR receptor phosphorylation was performed as follows. Cell lysates were subjected to immunoprecipitation using the KDR specific antiserum. The precipitates were subjected to polyacrylamide (7.5%) gel electrophoresis in presence of sodium dodecyl sulfate (SDS-PAGE) and were thereafter blotted onto a nitrocellulose membrane (Hybond C-EXTRA, Amersham). Phosphorylated proteins were detected by immunoblotting using the horseradish-peroxidase conjugated phosphotyrosine antibody RC20H (Transduction Laboratories), followed by chemoluminescence-based detection (ECL, Amersham) and autoradiography.

PDGF β-receptor = PDGF β-receptor (Homo sapiens, UniProt P09619); assay: PDGF-induced PDGFR autophosphorylation in intact PAEC cells; type: cell-based; set-up: expressed in transfected cells; host or cells: porcine aortic endothelial cells (PAEC), stably transfected; conditions: intact PAEC cells expressing PDGFR, PDGF-BB stimulated; read-out: IC50 (50% inhibition of phosphorylation) PDGFR
Description: as §1
The analysis of PDGF β-receptor phosphorylation was performed as follows. Cell lysates were subjected to immunoprecipitation using the PDGF β-receptor specific antiserum R3 [5]. The precipitates were subjected to polyacrylamide (7.5%) gel electrophoresis in presence of sodium dodecyl sulfate (SDS-PAGE) and were thereafter blotted onto a nitrocellulose membrane (Hybond C-EXTRA, Amersham). Phosphorylated proteins were detected by immunoblotting using the horseradish-peroxidase conjugated phosphotyrosine antibodies PY20 and 4G10 (Upstate Biotechnology), followed by application of secondary horseradish-peroxidase conjugated goat-anti-mouse antibody and chemoluminescence-based detection (ECL, Amersham) and autoradiography.
The data in Table 9 presents the differential potencies of the various compounds with respect to PDGFR and KDR, as was performed on intact PAEC cells expressing these receptors (see experimental methods section above).

PDGFβR = biological target: T2, PDGFβR (Mus musculus, UniProt P05622); assay: PDGFR autophosphorylation, purified receptor from Swiss 3T3 cell membranes (cell free); type: biochemical; conditions: for % of Control (percent autokinase activity): isolated PDGFβR; for IC50: isolated PDGFR from Swiss 3T3 cell membranes, read-out: IC50 (50% inhibition of phosphorylation)
T2 construct: A preparation of purified PDGFR from Swiss 3T3 cell membranes was used; endogenous in cells
Description: In vitro effect of tyrphostins on purified PDGFR autophosphroylation: Membranes were prepared from confluent cultures of canine kidney epithelial cells (TRMP) or Swiss 3T3 cells as described. Further purification of the PDGF-βR was performed as described in [23]. Briefly, 2 μl kinase preparation were incubated for 20 minutes on ice in the presence of 2 μg/ml PDGF-BB in 20 μl of 50 mM Hepes (pH 7.4). Kinase reaction was executed for 10 minute on ice with 5 mM MnCl2, 1 mM vanadate, 10 μM [γ-^32P]ATP (2.5 μCi per reaction). The reaction was terminated by addition of 10 μl of a solution containing 6% SDS, 30% β-mercaptoethanol, 40% glycerol, and 0.5 mg/ml bromophenol blue. The samples were heated for 5 minutes at 95° C. and subjected to polyacrylamide gel electrophoresis in the presence of 0.4% SDS, using 7.5% polyacrylamide gels. The gels were stained, dried and subjected to autoradiographic analysis. For quantification of radioactivity in electrophoresis gels, a Phospho-Imager (Molecular Dynamics, Fuji, or Bio-Rad) was used according to the instructions of the manufacturer. To obtain autoradiograms, objects were exposed to X-ray film (Fuji RX or Kodak X-OMAT) with intensifying screens at −70° C.
Inhibition of PDGF-induced tyrosine phosphorylation by tyrphostins in vitro: A preparation of purified PDGFR from Swiss 3T3 cell membranes was used to assess and compare the inhibitory effects of tyrphostin compounds on tyrosine kinase activity. Various concentrations of the purified “transoid” isomers AG2033 and AG2043, were evaluated. Table 8 below presents IC50 values (50% inhibition of phosphorylation, μM) of AG2033 and AG2043. Data presents the potencies of the compounds with respect to PDGFR, as was determined using the isolated receptor (see experimental methods section above).
Kinase reactions, using an isolated PDGFβR preparation, in the presence of 0.03-3 μM tyrphostin, were conducted, utilizing [γ-^32P]ATP as probe. Densitometric evaluation, relative to control lacking the tyrphostin inhibitor (100%), results in the percent autokinase activity, presented in Table 8 and in the dose-response curves for the purified transoid isomers AG2033 (FIG. 6) and AG2043 (FIG. 7). Further comparison between the resulting autoradiogrms for each pair of geometrical isomers AG2033 and AG2034 (upper panel); AG2043 and AG2044 (lower panel), for their inhibitory activity towards PDGF-induced PDGFβR autophosphorylation (concentration range: 0.1-10 μM) in intact cells is presented in FIG. 8. […] Similar potency relation exists between the AG2043 and AG2044 isomers.

[1] = system: human coronary artery SMC (HCASMC); assay: HCASMC migration (Boyden chamber); type: cell-based
Description: Human coronary artery endothelial cells (HCAEC) and human coronary artery smooth muscle cells (HCASMC) were purchased from Clonetics (Heidelberg), and grown in EBM medium (supplemented with EGM-MV SINGLE QUOTS®) or in SmBM medium (supplemented with SmGM-2 SINGLE QUOTS®), respectively (Clonetics).
Assessment of cell migration (Chemotaxis assay): The chemotactic response of HCASMC, PAEC/KDR and PAEC/PDGFR cells was assessed using the modified Boyden chamber (Neuro Probe, Inc.) and collagen-coated polycarbonate filters (Nucleopore) with pore diameters of 8 μm as previously described. Briefly, PAEC/KDR and PAEC/PDGFR cells were cultivated and assayed in Ham's F12 medium containing 10% FCS. HCASMC were cultivated in SmGM-2 (clonetics) and assayed in SmBM-WM containing 10% FCS and 0.1% BSA. To the medium in the lower part of the Boyden chamber, either VEGF or PDGF-BB (10 ng/ml, respectively) were added. AG2033 was added to both upper and lower chamber parts. Suspended cells were given 4 hours for migration, after a preincubation period of 15 minute in AG2033. The number of cells that migrated without PDGF-BB or VEGF stimulation was referred to as 100% migration (chemokinesis). The assay was performed in triplicate, and five medium-power fields were counted per well using a light microscope (Jenalab).
Further evaluation of HCASMC cells migration toward PDGD-BB, in the presence of purified “transoid” isomers, was conducted in a Boyden chamber (see experimental section, above).

[2] = 0.03 μM tyrphostin, [γ-32P]ATP, densitometry
[3] = absence of PDGF-BB, read-out: IC50 of basal migratory activity of HCASMC
[4] = presence of PDGF-BB, read-out: IC50 of induced migratory activity of HCASMC

T2 sequence (P05622 32-1098): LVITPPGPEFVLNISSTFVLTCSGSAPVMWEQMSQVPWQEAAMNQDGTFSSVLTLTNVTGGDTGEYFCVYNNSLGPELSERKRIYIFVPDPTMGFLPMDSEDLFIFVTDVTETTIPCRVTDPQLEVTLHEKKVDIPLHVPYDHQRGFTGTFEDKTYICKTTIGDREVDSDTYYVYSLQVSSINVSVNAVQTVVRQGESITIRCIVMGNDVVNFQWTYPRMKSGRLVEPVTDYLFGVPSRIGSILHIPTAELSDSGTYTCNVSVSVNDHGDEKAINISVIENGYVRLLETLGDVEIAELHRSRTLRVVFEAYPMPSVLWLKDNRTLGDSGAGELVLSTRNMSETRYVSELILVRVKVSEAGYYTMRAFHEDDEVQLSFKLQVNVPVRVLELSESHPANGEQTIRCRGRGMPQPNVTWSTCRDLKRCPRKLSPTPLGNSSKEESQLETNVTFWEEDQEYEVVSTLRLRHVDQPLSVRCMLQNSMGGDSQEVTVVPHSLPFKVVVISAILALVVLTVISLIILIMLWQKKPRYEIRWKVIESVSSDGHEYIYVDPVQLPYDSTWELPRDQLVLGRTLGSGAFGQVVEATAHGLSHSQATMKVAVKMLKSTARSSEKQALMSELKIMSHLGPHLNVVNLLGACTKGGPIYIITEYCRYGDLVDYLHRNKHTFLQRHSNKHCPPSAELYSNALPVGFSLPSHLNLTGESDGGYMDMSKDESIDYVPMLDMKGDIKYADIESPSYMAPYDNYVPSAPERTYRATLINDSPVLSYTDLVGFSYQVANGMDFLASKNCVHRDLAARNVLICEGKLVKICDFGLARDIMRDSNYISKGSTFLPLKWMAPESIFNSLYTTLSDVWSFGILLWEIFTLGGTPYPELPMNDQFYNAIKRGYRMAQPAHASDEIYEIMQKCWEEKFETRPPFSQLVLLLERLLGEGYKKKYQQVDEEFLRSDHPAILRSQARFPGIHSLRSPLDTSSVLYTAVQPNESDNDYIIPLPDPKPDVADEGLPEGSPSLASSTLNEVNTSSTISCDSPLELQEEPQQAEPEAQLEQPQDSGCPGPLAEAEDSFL
T1 sequence (P35968 20-1356): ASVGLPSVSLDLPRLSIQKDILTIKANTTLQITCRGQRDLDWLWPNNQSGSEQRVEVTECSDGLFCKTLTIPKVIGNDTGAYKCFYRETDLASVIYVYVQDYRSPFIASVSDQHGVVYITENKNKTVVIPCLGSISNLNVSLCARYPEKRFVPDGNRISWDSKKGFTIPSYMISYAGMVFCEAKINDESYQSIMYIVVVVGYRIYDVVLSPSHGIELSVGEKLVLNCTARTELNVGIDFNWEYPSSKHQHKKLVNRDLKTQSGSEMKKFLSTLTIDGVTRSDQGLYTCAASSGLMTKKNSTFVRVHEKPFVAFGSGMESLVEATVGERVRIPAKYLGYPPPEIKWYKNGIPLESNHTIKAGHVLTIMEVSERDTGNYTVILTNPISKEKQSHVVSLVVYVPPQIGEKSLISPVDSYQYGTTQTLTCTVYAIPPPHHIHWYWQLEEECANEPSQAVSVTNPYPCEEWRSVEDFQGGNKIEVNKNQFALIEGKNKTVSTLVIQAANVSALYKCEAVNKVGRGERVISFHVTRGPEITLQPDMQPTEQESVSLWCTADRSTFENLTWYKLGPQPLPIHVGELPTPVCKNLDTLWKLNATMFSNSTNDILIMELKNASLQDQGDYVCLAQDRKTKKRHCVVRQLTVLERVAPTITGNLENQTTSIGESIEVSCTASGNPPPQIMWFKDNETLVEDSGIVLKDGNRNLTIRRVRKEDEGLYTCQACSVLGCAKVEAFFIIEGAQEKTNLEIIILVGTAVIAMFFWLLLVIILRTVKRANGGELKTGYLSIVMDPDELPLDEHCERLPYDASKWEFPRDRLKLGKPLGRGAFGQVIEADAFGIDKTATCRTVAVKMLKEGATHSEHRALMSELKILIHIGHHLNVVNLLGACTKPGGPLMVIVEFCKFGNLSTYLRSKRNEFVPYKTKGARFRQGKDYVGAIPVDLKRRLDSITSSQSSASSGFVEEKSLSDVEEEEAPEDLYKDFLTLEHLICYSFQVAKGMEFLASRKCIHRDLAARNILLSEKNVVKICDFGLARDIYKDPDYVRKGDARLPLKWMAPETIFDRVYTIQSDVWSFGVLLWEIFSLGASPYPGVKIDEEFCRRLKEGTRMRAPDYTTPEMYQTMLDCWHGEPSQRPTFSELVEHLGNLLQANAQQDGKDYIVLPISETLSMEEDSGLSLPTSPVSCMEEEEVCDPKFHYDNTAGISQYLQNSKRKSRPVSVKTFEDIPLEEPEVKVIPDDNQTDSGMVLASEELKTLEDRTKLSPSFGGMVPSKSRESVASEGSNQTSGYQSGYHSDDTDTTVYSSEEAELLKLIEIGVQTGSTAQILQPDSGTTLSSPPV
Sequence of PDGF β-receptor (P09619 33-1106): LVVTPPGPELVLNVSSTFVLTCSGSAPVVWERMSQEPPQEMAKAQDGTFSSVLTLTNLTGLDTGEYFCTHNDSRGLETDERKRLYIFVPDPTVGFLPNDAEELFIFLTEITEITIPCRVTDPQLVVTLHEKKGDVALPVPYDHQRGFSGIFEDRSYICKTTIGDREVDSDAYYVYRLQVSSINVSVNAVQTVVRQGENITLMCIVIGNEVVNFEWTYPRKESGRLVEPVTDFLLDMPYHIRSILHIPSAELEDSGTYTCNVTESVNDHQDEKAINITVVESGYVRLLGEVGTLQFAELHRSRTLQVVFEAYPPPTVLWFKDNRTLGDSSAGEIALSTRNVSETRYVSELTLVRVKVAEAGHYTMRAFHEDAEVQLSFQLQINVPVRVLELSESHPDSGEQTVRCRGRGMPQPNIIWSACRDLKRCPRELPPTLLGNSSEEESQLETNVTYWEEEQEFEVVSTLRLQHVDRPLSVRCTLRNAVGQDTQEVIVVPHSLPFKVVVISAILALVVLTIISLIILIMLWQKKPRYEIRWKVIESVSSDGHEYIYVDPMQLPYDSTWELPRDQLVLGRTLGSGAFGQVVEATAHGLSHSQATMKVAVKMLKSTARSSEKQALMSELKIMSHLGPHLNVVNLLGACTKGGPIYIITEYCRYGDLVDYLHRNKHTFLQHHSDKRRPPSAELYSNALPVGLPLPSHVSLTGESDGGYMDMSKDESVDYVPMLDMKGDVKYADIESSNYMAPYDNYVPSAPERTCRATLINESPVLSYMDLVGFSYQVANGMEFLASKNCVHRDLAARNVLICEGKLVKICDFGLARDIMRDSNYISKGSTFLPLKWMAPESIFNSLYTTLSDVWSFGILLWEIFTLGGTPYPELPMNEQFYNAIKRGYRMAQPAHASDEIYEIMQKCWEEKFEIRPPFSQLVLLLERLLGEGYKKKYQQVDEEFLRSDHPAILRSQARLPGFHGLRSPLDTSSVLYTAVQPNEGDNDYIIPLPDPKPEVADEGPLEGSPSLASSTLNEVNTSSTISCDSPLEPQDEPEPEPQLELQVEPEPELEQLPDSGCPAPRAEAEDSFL

IC50 (KDR) [nM]	IC50 (PDGF β-receptor) [nM]	% of Control (percent autokinase activity) (PDGFβR; [2])	% of Control (percent autokinase activity) (PDGFβR; 0.1 μM tyrphostin)	% of Control (percent autokinase activity) (PDGFβR; 0.3 μM tyrphostin)	% of Control (percent autokinase activity) (PDGFβR; 1 μM tyrphostin)	% of Control (percent autokinase activity) (PDGFβR; 3 μM tyrphostin)	IC50 (PDGFβR) [nM]	IC50 [1, 3] [nM]	IC50 [1, 4] [nM]	Compound
3000	1000	60.1 % of Control	41.6 % of Control	40.4 % of Control	15.1 % of Control	11 % of Control	90	< 10000	~3000	Cc1nc2cc3nc(-c4cccs4)cnc3cc2n1C [AG2043, 1,2-dimethyl-6-(2-thiophene) imidazolo[5,4-g]quinoxaline]
> 10000	500	97.9 % of Control	37 % of Control	17.9 % of Control	13.7 % of Control	9.8 % of Control	70	< 10000	< 3000	Cc1nc2cc3nc(-c4ccccc4)cnc3cc2n1C [AG2033, 1,2-dimethyl-6-phenyl imidazolo[5,4-g]quinoxaline]
